The results in this text go back to article PMC7352571, “New Anti-Cancer Strategy to Suppress Colorectal Cancer Growth Through Inhibition of ATG4B and Lysosome Function” (Cancers, 2020).

One series relates to GFP-LC3 A549 cells. Description: GFP-LC3 dots in A549 cells stably expressing GFP-LC3. The series is classed as cell-based. To be noted: 6 h at different concentrations or 10 µM over time course.
The test system of series [1] is HCT116 cells. Kind of series: CCK-8 cell viability assay, HCT116. The class given is cell-based, Human. How it is done: (§1) Cells were seeded and incubated overnight in 96-well plates at a density of 5 × 10^3 cells/well. […] A total of 10 µL CCK-8 were added to each well for additional 1 h and cell viability was measured by CCK-8 assay. Absorbance was measured at 450 nm. The IC50 values were calculated by GraphPad Prism 7 (GraphPad Software Inc., San Diego, CA, USA).
Background: Formazan colour is commonly taken as a measure of viable cells.

The next series relates to LC3-II in HeLa cells. Kind of series: western blot for LC3 conversion, HeLa. To be noted: 1, 5, 10, 20 µM for 6 h; 10 µM time course. The class given is cell-based. On the procedure: Figure S2. 163N could inhibit autophagy flux. (A) HeLa cells treated with different concentrations of
II/TUBA was calculated using ImageJ software.
was examined. The number of GFP-LC3B dots was quantified. Data are presented as mean ± SEM
was performed to assess cell viability. […]
In general terms: In western blotting, separated proteins are transferred to a membrane and probed.

In the next series the test system is U87 cells. Kind of series: CCK-8 cell viability assay, U87. Particulars: Homo sapiens, U-87 MG; CCK-8 assay, 48 h. The class given is cell-based. How it is done: as §1
The test system of the next series is MDA-MB-231 cells. Description: CCK-8 cell viability assay, MDA-MB-231. The series is classed as cell-based. Particulars: Homo sapiens, CCK-8 assay, 48 h. On the procedure: as §1
The subject of a further series is HCT116 xenograft. Kind of series: HCT116 mouse xenograft model. The class given is in vivo, mice. On the procedure: Figure 7 163N inhibits tumor growth in a HCT116 mouse xenograft model. (A) HCT116 cells ([…]) were injected subcutaneously into the right flank of the immunodeficient nu/nu female mice. Seven days after tumor cell implantation, mice with palpable tumors were divided randomly into two groups and injected intraperitoneal on Monday, Wednesday, and Friday with either corn oil vehicle or 163N (50 mg/kg). Tumor volumes were calculated by the length and width measured by Vernier calipers every 2 d. (B) Body weight changes of mice during 28 d of exposure. (C) Tumor tissues were sectioned and subjected to H&E staining and immunohistochemistry for evaluating histological morphology, and expression of LC3B and SQSTM1. Scale bar: 50 µm. (D) TEM was used to detect the ultrastructure of the representative tumor tissues. Red arrows represent normal autolysosome structures. Data are presented as mean ± SEM. ** p < 0.01 vs VC.
The animal experimental procedures were approved by the Research Ethics Committee of Sun Yat-sen University (Guangzhou, China), ethic code: SYSU-IACUC-2018-000134. Four-week-old immunodeficient mice (nu/nu, female) were raised in a pathogen-free environment in the Experimental Animal Center of Sun Yat-sen University. Human colorectal cancer HCT116 cells (3 × 10^6) were injected subcutaneously into the right flank of the animals. Seven days after tumor cell implantation, mice with palpable tumors were divided randomly into two groups and injected intraperitoneal on Monday, Wednesday, and Friday of the following treatments: (1) vehicle control (corn oil); (2) 163N (50 mg/kg body weight) dissolved in corn oil. Tumors were measured using calipers and the tumor volume (mm^3) was calculated as follows: V = (L × W2)/2, L and W represents tumor length and width, respectively. At the end of the experiment (5 weeks after tumor implantation), the mice were given 200 µL of pentobarbital sodium (1%) by i.p. 30 min before sacrifice, tumors and organs were collected and weighed.

The subject of series [2] is HCT116 cells. Kind of series: wound healing assay. The series is classed as cell-based, Human. Particulars: 10 µM, 48 h. How it is done: Cells were seeded in 12-well plates. After the cells grew to confluence, wounds were made by sterile pipette tips. The cells were photographed at the beginning of wound formation. […] The distance of cell migration was calculated from three independent experiments.

The subject of series [3] is proteolytic activity of lysosomes in HeLa cells. Kind of series: DQ-BSA Red assay. Particulars: 6 h, 163N 5 or 10 µM, Baf 0.5 µM, E64D 25 µM plus pepstatin A 50 µM. The class given is cell-based. How it is done: Figure 5 163N causes lysosome dysfunction. […] . (C) HeLa cells were treated with or without 163N (10 µM) for 6 h, followed by immunostaining using cathepsin B and LAMP1 antibody. The colocalization of cathepsin B and LAMP1 was measured.
DQ-BSA Red assay: cells were incubated with 10 µg/mL DQ-BSA Red in EBSS medium at 37° for 1.5 h, and then new medium with or without the indicated compounds were added for another 4 or 6 h, and then fluorescence microscopy was used for detecting the intensity of red fluorescent.
Supplementary Materials: New Anti-Cancer Strategy
to Suppress Colorectal Cancer Growth Through
Inhibition of ATG4B and Lysosome Function
Figure S1. Compounds with a 6-methylpyrimidine-2,4-diamine structure could cause lysosome
inhibition. (A) The structure of the representative lysosome inhibitors. (B) GFP-LC3B HeLa cells were
treated with Baf (0.5 µM) or 5 µM of different lysosome inhibitors for 2 h, then LysoTracker Red (LTR,
25 ng/mL) was used and the relative LTR fluorescent intensity was measured. (C) HeLa cells were
firstly treated with 10 µg/mL DQ-BSA for 1.5 h, and then treated with Rap (1 µM), Baf (0.5 µM), E64D
(25 µM) plus pepstatin A (50 µM), or 5 µM of different lysosome inhibitors for 4 h.
Cancers 2020, 12, x; www.mdpi.com/journal/ cancers […]

Take `COc1ccc(Nc2cc(C)nc(Nc3ccc(-c4cc5ccccc5o4)cc3)n2)cc1` [Compound 163N]: in the series with GFP-LC3 A549 cells, the GFP-LC3 dots result is “accumulation of GFP-LC3 dots in dose- and time-dependent manners”. The “cytotoxicity relative to XOS00163, XOS00201 and XOS00207, HCT116” value in the series with HCT116 cells [1] (HCT116 cells) is recorded as “about five times higher cytotoxicity”. Further, the 50% inhibitory concentration (IC50) (usually the concentration needed to halve the response being measured) stood at 5.76 µM with HCT116 cells [1] (Homo sapiens, HCT-116, CCK-8 assay, 48 h); 10.6 µM with U87 cells; 9.99 µM with MDA-MB-231 cells. For the same molecule, the “LC3-II level, HeLa” value in the series with LC3-II in HeLa cells was “dose- and time-dependent accumulation of LC3-II”. Moreover, the “LC3B and SQSTM1 in tumor tissue by immunohistochemistry” value in the series with HCT116 xenograft (50 mg/kg intraperitoneal) is “increased levels of LC3B and SQSTM1”. Further, in the series on HCT116 xenograft (50 mg/kg intraperitoneal Mon/Wed/Fri, nu/nu female mice, vs vehicle), the tumor growth result was “less prominent”. For the same molecule, the body weight result in the series with HCT116 xenograft (50 mg/kg intraperitoneal, 28 d, vs vehicle) was “no significant changes in body weight”. Moreover, the “weight index and morphology of heart, liver, spleen, lung, kidney” value with HCT116 xenograft (50 mg/kg intraperitoneal, vs vehicle) is “no significant changes in weight index”. In addition, the “migration of wild type HCT116 cells” value with HCT116 cells [2] was “significantly inhibited the migration”. For the same molecule, the “dequenching of DQ-BSA (proteolytic activity of lysosome)” value in series [3] is on record as “nearly no dequenching of DQ-BSA”.
